The values that follow come from a melting point compilation (Tetko et al.; mined from patent text by program, amines drawn as free bases though some values may be those of a salt).

Regarding `COc1ccc(-c2oncc2CO)cc1OC`, the melting point lay in the range of 83 to 84 °C.

Molecule `CN1C(=O)NC(=O)C1=Cc1cc(Br)c(O)c(Br)c1` gave a melting point of 271 to 277 °C.

For the molecule `CCOC(=O)c1sc(-c2ccccc2)nc1O`, the melting point was in the range of 114 to 116 °C.

Regarding `CCOC(=O)c1nnn(-c2ccccc2)c1N`, the melting point fell in the range of 124 to 126 °C.

Regarding `CCC(CC)N(C[C@@H]1CCC[C@H](CN(C(=O)Nc2ccc(N(C)C)cc2)C(CC)CC)C1)C(=O)Nc1ccc(N(C)C)cc1`, the melting point was 157 to 160 °C.

Molecule `CCOC(=O)c1ccc2c(c1)c(-c1ccccc1)nn2CCC#N` returned a melting point of 99 to 102 °C.

Molecule `COc1ccc2c(c1)N(C1=CCCN1C1=NCCC1)c1ccccc1S2` displayed a melting point of 151 to 153 °C.

Turning to `Clc1ccc(Oc2nc(Cl)nc(Cl)n2)c(Cl)c1`, the melting point was 120 to 122 °C.

In the case of `Cc1cc(OCCc2nc(-c3ccccc3)oc2C)cc(C)c1CN(O)C(N)=O`, the melting point lay within 170 to 171 °C.

With `Cc1noc(NS(=O)(=O)c2cccc(C(F)(F)F)c2)c1Br`, the melting point is 113 to 115 °C.

The molecule `CCCCc1cc2c(Nc3ccc4[nH]ccc4c3)c(C#N)cnc2s1` registered a melting point of 210 °C.

On to `O=C(NCc1ccccn1)C1=C(C(=O)Nc2cc(OC3CCCC3)c(Cl)cc2F)CCCC1`, for which the melting point was in the range of 144 to 148 °C.

Molecule `CCOc1ccc(S(=O)(=O)N2CCNCC2)cc1-c1nc2c(OC)cccc2c(=O)[nH]1` returned a melting point of 163 to 165 °C.

Consider `CCOCC(=O)NC1CCN(C[C@@]23C[C@@H](c4ccccc42)c2ccc(Cl)cc23)CC1`, for which the melting point fell in the range of 68 to 70 °C.

In turn, `C(#Cc1cc2ccccc2s1)c1cccs1` registered a melting point of 114 to 116 °C.

`O=C(Nc1ccc(C(=O)N2CCc3cn[nH]c3-c3sccc32)c(Cl)c1)c1cc(Cl)ccc1F` registered a melting point of 282 to 288 °C.

Take `CN(C)C=Nc1[nH]nc(NCCNC(=O)OC(C)(C)C)c1C#N`: the melting point was in the range of 158 to 160 °C.

As to `COc1ccc(Br)c(COc2cccc3cc(OC)ccc23)c1`, the melting point fell in the range of 83 to 84 °C.

`OC[C@H]1O[C@@H](n2cnc3c(N[C@H]4CC[C@H](O)CC4)nc(Cl)nc32)[C@H](O)[C@@H]1O` registered a melting point of 203 to 204 °C.

`N#Cc1cc([N+](=O)[O-])ccc1N1CCN(Cc2ccccc2)CC1` yielded a melting point of 124 °C.

For `C[C@@H](NC(=O)[C@H](Cc1ccc(OCc2ccccc2)cc1)NC(=O)[C@@H](N)COCc1ccccc1)C(=O)O`, the melting point lay in the range of 121 to 122 °C.

`O=C(C=Cc1ccc(Cl)cc1)NC1CCCNC(=O)C1` (configuration not stated): the melting point lay within 256 to 257 °C.

In turn, `CC1(C)SC2C(N3C(=O)C(C4=CCC=CC4)NC3(C)C)C(=O)N2C1C(=O)O` (configuration not stated) returned a melting point of 186 °C.

With `CCOC(=O)c1cn(CC)c2cc(NC(C)=O)c(F)cc2c1=O`, the melting point lay in the range of 177 to 180 °C.

For the molecule `COc1ccc2c(c1)cc1c3c(cccc32)C(=O)OC1=O`, the melting point was 292 to 293 °C.

For the molecule `Clc1ccc(C23CCN(CC2)C3)cn1`, the melting point is 70 to 72 °C.

In turn, `CCN1CC(c2ccccc2)=C(OCCN2CCCCC2)C1=O` came in with a melting point of 120 °C.

For the molecule `CCc1cc(C(C)=O)c(O)cc1OCCCCCn1cncn1`, the melting point came to 87 °C.

Turning to `O=C(O)C#Cc1ccc(-c2ccccc2)cc1`, the melting point was 170 °C.

Turning to `Cc1ccc2c(c1)Oc1ccc([N+](=O)[O-])cc1C(=O)N2`, the melting point was in the range of 264 to 266 °C.

Consider `C=CCOc1cc(-n2ncc(C(F)(F)F)c(C)c2=O)c(F)cc1Cl`, for which the melting point was determined as 79.8 °C.

`CSc1nc(I)ncc1Br` displayed a melting point of 72 to 76 °C.

For `Cn1nnnc1-c1cn(C)c2cc(S(=O)c3ccccc3)ccc2c1=O` (configuration not stated), the melting point lay in the range of 217 to 220 °C.

The molecule `CN(CCCCOCC(=O)O)c1cnc(-c2ccc(F)cc2)c(-c2ccc(F)cc2)n1` displayed a melting point of 116 to 118 °C.

`CS(=O)(=O)c1ccc(-c2ccc(N=[N+]=[N-])nc2-c2ccc(F)cc2)cc1` displayed a melting point of 229 °C.

`CS(=O)(=O)Nc1cccc(Nc2nc(OC3CCCC3)c3cc[nH]c3n2)c1` had a melting point of 203 to 205 °C.

Take `COCNC(=O)OC(C(=O)OC)P(C)(C)=O` (configuration not stated): the melting point amounted to 101 °C.

On to `CS(=O)(=O)c1csc(NC(=O)c2ccccc2O)n1`, for which the melting point fell in the range of 231 to 235 °C.

In turn, `CCCN(C1=C(O)C[C@@](CCc2cccc(O)c2)(C2CCCC2)OC1=O)c1ccccc1` yielded a melting point of 74 to 76 °C.

For the molecule `CCCCOc1nccnc1C1(O)CN2CCC1CC2` (configuration not stated), the melting point lay in the range of 107 to 108 °C.

For `CCOC(=O)c1ccc2nccc(Cl)c2c1`, the melting point was in the range of 84 to 85 °C.

Consider `CC(C)CCC1(CCC(C)C)c2cc(Cl)ccc2-c2ccc(Cl)cc21`, for which the melting point lay in the range of 116 to 118 °C.

For `C[C@H](NC(=O)C12CC3CC(CC(C3)C1)C2)C(=O)N1CCC[C@H]1C(=O)Nc1ccccc1`, the melting point lay in the range of 119 to 121 °C.

As for `CCc1nn(-c2ccc(F)cc2)c2c1C(C)N(C)C2=O` (configuration not stated), the melting point is 65 °C.

Consider `CCCC(=O)NC1Cc2ccc(-c3ccc(=O)[nH]n3)cc2C1` (configuration not stated), for which the melting point is 228 to 229 °C.

The molecule `CCOC(=O)C(O)=Cc1ncc(Cc2ccc(F)cc2)s1` returned a melting point of 160 to 162 °C.

`COC(=O)c1c(-c2ccncc2)[nH]c(-c2ccncc2)c1C` showed a melting point of 245 to 247 °C.

Molecule `C=CC(c1ccc(C(C)C)cc1)c1c(C)c(NC=O)c(C)c(C)c1O` (configuration not stated) displayed a melting point of 170 to 171 °C.

The molecule `CCCC(C)(COS(N)(=O)=O)COS(N)(=O)=O` registered a melting point of 92 to 94 °C.

In the case of `CCOC(=O)Cc1nc(-c2ccccc2)oc1-c1ccco1`, the melting point was 79 to 80 °C.

Molecule `COc1ccc(S(=O)(=O)N2c3ccccc3CC2C(=O)NO)cc1` (configuration not stated) gave a melting point of 142 °C.

In turn, `CNC(=O)Nc1snc(S(C)(=O)=O)c1C#N` came in with a melting point of 275 °C.

For `CC1(C)CN(Cc2cc3ncccc3o2)c2nc(-c3ccncc3)cc(=O)n2C1`, the melting point is 170 to 171 °C.

`NCCOc1cccc2c1CC(=O)N2`: the melting point was 146 to 148 °C.

The molecule `CCOP(=O)(C=Cc1ccc(N)cc1)OCC` registered a melting point of 81 °C.

Turning to `O=C(CCc1cnoc1-c1ccccc1)Nc1nc(-c2ccc(Cl)cc2)cs1`, the melting point was in the range of 172 to 173 °C.

`ON=C1c2ccccc2-c2c1c(N1CCN(c3ccccn3)CC1)nc1ccc(Br)cc21` displayed a melting point of 235 to 237 °C.

Turning to `COc1cc2c(cc1OC)CN(CCCCc1ccc(NC(=O)c3cccc4c(=O)c5cccc(C)c5[nH]c34)cc1)CC2`, the melting point was 140 °C.

For `CC(CO)Nc1c(F)cc2c(=O)c(C(=O)O)cn(-c3cc(N)c(F)cc3F)c2c1Cl` (configuration not stated), the melting point is 153 to 158 °C.

`N[C@@H](CO)C(=O)NC(=O)N(CCCl)N=O` had a melting point of 117 to 120 °C.

Take `CN(C)C1=NS(=O)(=O)c2ccccc21`: the melting point lay in the range of 323 to 324 °C.

Turning to `OCCN1CCC(=C2c3sccc3CCn3ncnc32)CC1`, the melting point was 150 °C.

Turning to `CCCCNC(=O)c1ccc(Cl)c(-n2nc(CCCC)n(Cc3ccc(-c4ccccc4S(N)(=O)=O)cc3F)c2=O)c1`, the melting point was 108 to 110 °C.

As for `COc1ccc(Oc2ccc3c(c2)SC(c2ccc(OC)cc2)C(O)C(=O)N3)cc1` (configuration not stated), the melting point is 213 to 214 °C.

`CCCCCCCCC#CCCCCCCCCCCCC(=O)O` gave a melting point of 58 °C.

In the case of `OCc1ccc(-c2cccc3cncn23)cc1`, the melting point is 137 to 138 °C.

As for `CC(OC(=O)C1N2C(=O)C(NC(=O)Cc3ccccc3)C2S(=O)C1(C)C)C1CC1` (configuration not stated), the melting point is 158 to 159 °C.

`COc1ccc(C2CCc3ccccc3C2=O)cc1` (configuration not stated) returned a melting point of 107 to 108 °C.

In turn, `O=C(NO)c1ccc(C(=O)NOCCC23CC4CC(CC(C4)C2)C3)cc1` returned a melting point of 198 to 200 °C.

As for `C[C@H]([C@](O)(Cn1cncn1)c1ccc(F)cc1F)S(=O)(=O)N1CCCC1`, the melting point was in the range of 149 to 150 °C.

Molecule `CC(C)(OCc1nn(Cc2ccccc2)c2ccccc12)C(=O)NCC(=O)O` yielded a melting point of 157 to 158 °C.

The molecule `COc1cc(N)c(Cl)cc1C(=O)N[C@H]1CCN(CCNc2nccs2)C[C@H]1OC` (relative stereo) returned a melting point of 141 °C.

With `CCC(Br)C(=O)Nc1c(C)cccc1C` (configuration not stated), the melting point was in the range of 180 to 190 °C.

Molecule `COc1cc(Nc2c(NC(C)C(C)(C)C)c(=O)c2=O)c2ncccc2c1` (configuration not stated) showed a melting point of 243 to 245 °C.

`Cc1c(-c2ccccc2)n[nH]c1OCN1CCCC1` displayed a melting point of 88 °C.

On to `Clc1ccc2c(Br)ccnc2c1`, for which the melting point was in the range of 102 to 103 °C.

`COc1ccc(C2SCc3c(sc(N)c3C(=O)c3cccs3)S2)cc1` (configuration not stated) yielded a melting point of 138 to 140 °C.

Turning to `Fc1ccc(COc2ncc(F)c(NCOCc3ccccc3)n2)cc1`, the melting point is 64 to 66 °C.

As to `COc1ccc2nc(Cl)c(Cl)nc2c1`, the melting point was 156 to 159 °C.

`Fc1ccc2c(CN3CCN(CCc4ccccc4)CC3)n[nH]c2c1` gave a melting point of 148 to 149 °C.

`CC(=O)CCC(=O)c1ccc(Cl)cc1`: the melting point fell in the range of 165 to 167 °C.

Turning to `COc1ccc(C2CNC(=O)S2)cc1OC` (configuration not stated), the melting point lay in the range of 167 to 169 °C.

Molecule `Cc1cccc(C(=O)Nc2c[nH]nc2C(=O)NCC(F)(F)F)n1` came in with a melting point of 257 to 258 °C.

With `Nc1cc(C(=O)O)c(Cl)cc1F`, the melting point was in the range of 153 to 155 °C.

Consider `COc1ccccc1CNc1ccc2cc(Nc3cccc(C)n3)ccc2n1`, for which the melting point worked out at 134 °C.

For `CC(CNC(=O)Nc1ccc([N+](=O)[O-])cc1O)OCc1ccccc1` (configuration not stated), the melting point was in the range of 64.6 to 65.2 °C.

Molecule `COc1cc2c(c3c1OC(C)(C)C3)C(c1ccn(-c3cc(C(N)=O)ccn3)c(=O)c1)=NC(C)(C)C2` returned a melting point of 174 to 175 °C.

As for `CCCN1CCC(C(=O)Nc2ccc(CN(C)C3CCOCC3)cc2)=Cc2cc(-c3ccc(N4CCOCC4)cc3)ccc21`, the melting point lay within 114 to 118 °C.

For `CCNC(=O)C1CCN(c2cc(-c3ccc(Cl)cc3)nc3ccccc23)CC1`, the melting point lay within 231 to 233 °C.

Regarding `COc1ccnc(N2CCN(C(=O)c3ccco3)CC2)n1`, the melting point was in the range of 85 to 86 °C.

`CCCCCCCCCCCCC(O)CC#CCCCC(=O)O` (configuration not stated): the melting point lay within 80.5 to 81 °C.

With `COc1cn(-c2cccc(C(F)(F)F)c2)nc(-c2ccnn2-c2ccccc2)c1=O`, the melting point is 139 to 141 °C.
